Assay results: ChEMBL document CHEMBL1201862, “PubChem BioAssay data set” (2004)
Active and inactive are the calls of the source.

Tests used:
Genome polyprotein = Genome polyprotein (Hepatitis C virus, UniProt Q2Q167); assay: HCV core protein dimerization inhibitors, dose response, biochemical, TR-FRET (AID 2159); design: species or system Hepacivirus hominis;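 also: blocks dimerization of HCV core protein measured by TR-FRET between tagged core106 pairs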
[1] = A cytotoxicity screen of small molecule inhibitors of the PhoP region in Salmonella typhi identified in the primary screen. [Related pubchem assays: 1850, 1864, 1985 ]; type: functional
[2] = M. tuberculosis growth inhibition, HTS (AID 449762); type: functional
HeLa = assay: HeLa cell cytotoxicity, dose response, cytotoxicity control for MITF activator project, CellTiter-Glo luminescence, cherry-pick samples (AID 540259); type: functional, cell-based; conditions: Homo sapiens
[3] = molecular target: T1, Carboxy-terminal domain RNA polymerase II polypeptide A small phosphatase 1 (Homo sapiens, UniProt Q9GZU7); assay: inhibitors of CTDSP1, concentration-response testing, biochemical assay, absorbance-based, actives from ultra-high-throughput screening (AID 540297); type: functional
T1 sequence (Q9GZU7 whole entry): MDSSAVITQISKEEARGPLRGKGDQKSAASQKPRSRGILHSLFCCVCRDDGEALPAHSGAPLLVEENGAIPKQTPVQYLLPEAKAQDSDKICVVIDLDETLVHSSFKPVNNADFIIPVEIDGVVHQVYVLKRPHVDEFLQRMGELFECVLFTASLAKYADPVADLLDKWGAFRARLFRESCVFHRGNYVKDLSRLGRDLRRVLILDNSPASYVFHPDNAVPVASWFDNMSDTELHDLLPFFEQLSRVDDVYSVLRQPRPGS

[4] = molecular target: T2, Small ubiquitin-related modifier 1 (Homo sapiens, UniProt P63165); assay: inhibitors of SUMO1 peptide binding, dose response, biochemical, fluorescence polarization, uHTS hits (AID 624382); type: functional; conditions: read-out: IC50_Mean
T2 sequence (P63165 whole entry): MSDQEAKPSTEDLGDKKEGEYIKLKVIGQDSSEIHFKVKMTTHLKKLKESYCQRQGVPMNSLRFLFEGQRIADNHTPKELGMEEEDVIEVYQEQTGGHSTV

[5] = molecular target: T2, Small ubiquitin-related modifier 1; assay: inhibitors of SUMO1 partner interactions, dose response, biochemical, FRET (AID 624383); type: functional; conditions: read-out: IC50_Mean
ELAV-like protein 1 = ELAV-like protein 1 (Homo sapiens, UniProt Q15717); assay: Identify HuR specific inhibitors.; type: functional
Sequence of ELAV-like protein 1 (Q15717 whole entry): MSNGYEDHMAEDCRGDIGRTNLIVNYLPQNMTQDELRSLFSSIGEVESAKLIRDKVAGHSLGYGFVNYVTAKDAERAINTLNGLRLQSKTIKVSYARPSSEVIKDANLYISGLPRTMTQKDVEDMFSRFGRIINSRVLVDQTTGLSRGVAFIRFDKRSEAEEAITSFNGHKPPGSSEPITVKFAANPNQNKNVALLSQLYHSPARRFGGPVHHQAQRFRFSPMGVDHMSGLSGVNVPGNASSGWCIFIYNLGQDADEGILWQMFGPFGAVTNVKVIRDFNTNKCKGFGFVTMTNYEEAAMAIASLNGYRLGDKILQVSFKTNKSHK

[6] = molecular target: Glutathione-S-transferase (Schistosoma japonicum, UniProt Q26513); assay: biotin-GST/anti-GST TR-FRET signal inhibitors, dose response, artefact control for Vif-APOBEC3G degradation inhibitor project, biochemical (AID 1117362); type: functional
Sequence of Glutathione-S-transferase (Q26513 whole entry): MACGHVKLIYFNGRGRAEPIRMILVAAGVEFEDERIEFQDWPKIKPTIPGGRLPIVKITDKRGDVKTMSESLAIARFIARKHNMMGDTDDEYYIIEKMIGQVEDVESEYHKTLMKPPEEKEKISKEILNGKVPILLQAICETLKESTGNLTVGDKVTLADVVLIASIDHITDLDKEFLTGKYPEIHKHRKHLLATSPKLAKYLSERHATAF

[7] = P. falciparum Dd2 blood-stage growth inhibition, dose response, SYBR Green fluorescence, erythrocytes, dry powder, set 2 (AID 1159574); type: functional, cell-based
[8] = P. falciparum 3D7-ScDHODH growth inhibitors, dose response, SYBR Green, dry powder samples (AID 1159570); type: functional, cell-based;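 also: parasite growth measured after 72 hours of compound exposure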
[9] = HepG2 cell cytotoxicity, dose response, cytotoxicity control, plate reader, dry powder samples (AID 1159569); type: functional, cell-based;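 also: inhibitor potency with signal falling toward the positive control level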
[10] = P. falciparum Dd2 growth inhibitors, dose response, SYBR Green, cherry-picked samples (AID 1159567); type: functional, cell-based
[11] = P. falciparum Dd2 growth inhibitors, dose response, SYBR Green, dry powder samples (AID 1159566); type: functional, cell-based;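 also: potency for growth inhibition with lower SYBR green DNA signal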
[12] = Plasmodium falciparum Dd2 Sybr green parasite growth Measured in Cell-Based and Microorganism Combination System Using Plate Reader - 2153-01_Inhibitor_Dose_DryPowder_Activity_Set3.; type: functional
[13] = P. falciparum ATP4 D1247Y mutant growth inhibitors, dose response, NITD609-resistant line, SYBR Green, dry powder (AID 1159571); type: functional, cell-based;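 also: parasites synchronized at ring stage by sorbitol before testing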
[14] = molecular target: G-protein coupled receptor 183 (Homo sapiens, UniProt P32249); assay: SAR confirmation of small molecule antagonists of the EBI2 receptor via a luminescent beta-arrestin assa.; type: functional
Sequence of G-protein coupled receptor 183 (P32249 whole entry): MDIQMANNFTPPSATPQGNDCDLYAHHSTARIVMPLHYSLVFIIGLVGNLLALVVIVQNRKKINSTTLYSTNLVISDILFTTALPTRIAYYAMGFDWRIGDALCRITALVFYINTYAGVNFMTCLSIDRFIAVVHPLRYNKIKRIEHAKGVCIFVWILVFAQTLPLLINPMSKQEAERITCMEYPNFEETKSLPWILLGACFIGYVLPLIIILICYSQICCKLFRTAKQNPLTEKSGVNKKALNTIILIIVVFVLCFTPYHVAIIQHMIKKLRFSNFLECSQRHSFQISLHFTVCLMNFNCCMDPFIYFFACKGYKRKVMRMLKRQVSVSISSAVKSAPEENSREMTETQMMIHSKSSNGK

[15] = molecular target: T3, Low molecular weight phosphotyrosine protein phosphatase (Homo sapiens, UniProt P24666); assay: LMPTP phosphatase inhibitors, dose response, biochemical, OMFP substrate, fluorescence intensity, set 2 (AID 743307); type: functional
T3 sequence (P24666 whole entry): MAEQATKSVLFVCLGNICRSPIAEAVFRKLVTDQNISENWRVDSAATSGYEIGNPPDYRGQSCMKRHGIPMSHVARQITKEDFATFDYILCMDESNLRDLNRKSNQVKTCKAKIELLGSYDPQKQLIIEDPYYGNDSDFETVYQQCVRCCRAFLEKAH

[16] = molecular target: T3, Low molecular weight phosphotyrosine protein phosphatase; assay: LMPTP phosphatase inhibitors, colorimetric pNPP readout, dose response, orthogonal assay, biochemical, absorbance, pNPP substrate, LMPTP-A isoform, set 2 (AID 743308); type: functional
[17] = P. falciparum Dd2 growth inhibitors, dose response, SYBR Green, dry powder samples, set 9 (AID 1159568); type: functional, cell-based
H9c2 = assay: cells; type: functional, cell-based; conditions: Rattus norvegicus, H9c2, Myocardium;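 also: confirmatory concentration-response retest of ultra-high-throughput screening hits for modulation of myocardial damage; cell death induced by hydrogen peroxide oxidative stress; compound pretreatment for 60 min then peroxide exposure for 2 h; potency is for protecting the cells against peroxide damage rather than for killing them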
[18] = Dose-response inhibition of insulin secretion in a rat insulinoma line at 5 mM glucose (AID 1117331); type: functional, cell-based; conditions: INS-1E
cells = type: functional, cell-based; conditions: INS-1E
Bcl-2-related protein A1 [19] = molecular target: T4, Bcl-2-related protein A1 (Mus musculus, UniProt Q07440); assay: Bfl-1 inhibitors, primary screen, biochemical, fluorescence polarization, FITC-Bid, mouse (AID 432)
T4 sequence (Q07440 whole entry): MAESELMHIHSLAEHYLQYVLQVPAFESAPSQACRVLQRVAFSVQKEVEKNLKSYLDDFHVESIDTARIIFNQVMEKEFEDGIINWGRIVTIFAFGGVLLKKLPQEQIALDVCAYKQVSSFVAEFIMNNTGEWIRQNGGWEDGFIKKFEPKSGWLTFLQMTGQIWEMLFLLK

Bcl-2-related protein A1 [20] = molecular target: T4, Bcl-2-related protein A1; assay: Bfl-1 inhibitors blocking BH3 peptide binding, confirmation, biochemical, TR-FRET, mouse Bfl-1 (AID 621);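 also: TR-FRET binding of GST-Bfl-1 to FITC-labelled Bid peptide via terbium antibody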
[21] = Shn3 3'UTR reporter inhibitors, dose response, cell-based, Clone20 osteoblasts, firefly luciferase, cherry-picked (AID 624132); type: functional;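 also: firefly luciferase luminescence from reporter carrying the Shn3 3'UTR in osteoblasts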
[22] = control 3'UTR Renilla luciferase suppression, dose response, counter-screen for Shn3 inhibitor project, cell-based, Clone20-Shn3RL, cherry-picked (AID 624133); type: functional
[23] = HeLa 2N DNA content increase, dose response, cell-based, IC50 (AID 1117349); type: functional
[24] = half-maximal inhibitory concentration for glucagon-like peptide-1 release, STC-1 cell line, dose-response (AID 1117345); type: functional, cell-based
[25] = HeLa 4N DNA content increase, dose response, cell-based, IC50 (AID 1117351); type: functional
[26] = Glucagon-like peptide 1 release potency, NCI-H716 cell line, dose-response, half-maximal inhibitory concentration (AID 1117344); type: functional, cell-based

Sequence of Genome polyprotein (Q2Q167 whole entry): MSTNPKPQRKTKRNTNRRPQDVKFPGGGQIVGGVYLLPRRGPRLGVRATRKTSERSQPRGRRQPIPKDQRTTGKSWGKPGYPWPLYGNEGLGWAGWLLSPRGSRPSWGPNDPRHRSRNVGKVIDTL

COc1ccc(S(=O)(=O)N2CCOCC2)cc1NC(=O)c1cccc(-n2cccc2)c1
IC50 (Genome polyprotein): > 49.8 µM (not active)

Nc1ccc(N=Nc2ccccc2)c(N)n1
EC50 [1]: > 50 µM (active)
IC50 [2]: > 100 µM (active)
AC50 (HeLa): 36 µM (active)

CCOC(=O)C(=O)Cc1cccnn1
IC50 [3]: 4.08 µM (active)
IC50 [4]: > 66.6 µM (inactive)
IC50 [5]: 6.34 µM (active)
IC50 (ELAV-like protein 1): 4.6 µM (inactive)
IC50 [6]: > 100 µM (active)

COc1ccc(NC(=O)N2CCCCN3[C@@H](CO)[C@H](c4ccc(C#Cc5ccccc5)cc4)[C@@H]3C2)cc1
AC50 [7]: 0.036 µM (active)

CCCC(=O)Nc1ccc2c(c1)OC[C@@H](C)N(Cc1cccc(F)c1)C[C@@H](C)[C@H](OC)CN(C)C2=O
AC50 [8]: 5.76 µM (active)
AC50 [9]: 58.9 µM (active)
AC50 [10]: 1.09 µM (active)
AC50 [11]: 0.884 µM (active)
AC50 [12]: 1.82 µM (active)
AC50 [13]: 2.24 µM (active)

CCCCN1CCN(C(=O)/C=C/c2ccc(Br)cc2)CC1
IC50 [14]: 0.0021 µM (active)

COc1cccc(-c2cc(NCCCN3CCCCC3)c3ccccc3n2)c1
IC50 [15]: 2.21 µM (active)
IC50 [16]: 4.89 µM (active)

COc1cccc(-c2cccc(-c3nc(C(=O)NCc4ccc(Oc5ccccc5)cc4)cc4c3[C@@H](CCO)N([S+]([O-])C(C)(C)C)C4)c2)c1 (stereo not given in full)
AC50 [8]: 0.826 µM (active)
AC50 [17]: 0.447 µM (active)
AC50 [10]: 0.671 µM (active)
AC50 [11]: 0.237 µM (active)
AC50 [13]: 0.449 µM (active)

O=c1[nH]c2ccccc2n1CCCN1CCC(n2c(=O)[nH]c3cc(Cl)ccc32)CC1 [DOMPERIDONE]
IC50 (H9c2): > 79 µM (inactive)
IC50 [18]: 12.4 µM (inactive)
IC50 (cells): > 33.3 µM (inactive)

CC[C@H](C)C(=O)O[C@H]1C[C@@H](C)C=C2C=C[C@H](C)[C@H](CC[C@@H]3C[C@@H](O)CC(=O)O3)[C@H]21 [LOVASTATIN]
IC50 (Bcl-2-related protein A1 [19]): > 100 µM (not active)
IC50 (Bcl-2-related protein A1 [20]): > 100 µM (not active)
AC50 [21]: 1.62 µM (active)
AC50 [22]: 4.74 µM (active)
IC50 [23]: > 10 µM (inactive)
IC50 [24]: > 40 µM (inactive)
IC50 [25]: > 10 µM (inactive)
IC50 [26]: 32.9 µM (inactive)
